# Results reported in ChEMBL document CHEMBL4706644, “Structure-Activity Relationship Studies of Pyrimidine-4-Carboxamides as Inhibitors of N-Acylphosphatidylethanolamine Phospholipase D” (J Med Chem, 2021).
# Target: T1, N-acyl-phosphatidylethanolamine-hydrolyzing phospholipase D (Homo sapiens, UniProt Q6IQ20)
# Assay: Inhibition of full length human NAPE-PLD expressed in HEK293T cell lysate using PED6 as substrate preincubated for 30 mins followed by substrate addition and measured at 2 mins interval for 1 hr by tecan-plate reader analysis
# Assay type: subcellular
# T1 sequence (Q6IQ20 whole entry): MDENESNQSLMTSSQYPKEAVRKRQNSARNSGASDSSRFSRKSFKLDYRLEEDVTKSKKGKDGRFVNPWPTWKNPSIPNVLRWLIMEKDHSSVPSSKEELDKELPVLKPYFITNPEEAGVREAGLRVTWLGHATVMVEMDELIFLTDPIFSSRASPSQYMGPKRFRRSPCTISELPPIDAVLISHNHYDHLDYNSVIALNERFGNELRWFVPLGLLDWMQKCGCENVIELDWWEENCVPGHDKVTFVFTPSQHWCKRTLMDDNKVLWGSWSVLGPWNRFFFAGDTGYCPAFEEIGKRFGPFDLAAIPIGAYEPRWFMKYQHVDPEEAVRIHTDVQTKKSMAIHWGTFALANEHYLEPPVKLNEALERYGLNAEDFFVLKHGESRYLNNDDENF
row,SMILES,IC50 [µM]
1,CN(CCc1ccccc1)c1nc(C(=O)NCc2nccs2)cc(N2CCOCC2)n1,32.4
2,O=C(NCC1CC1)c1cc(N2CCOCC2)nc(NCc2ccccc2)n1,22.9
3,O=C(NCC1CC1)c1cc(N2CCOCC2)ncn1,> 50.1
4,O=C(NCC1CC1)c1cc(N2CCOCC2)nc(Cl)n1,> 50.1
5,O=C(NCC1CC1)c1cc(N2CCOCC2)nc(N(CCc2ccccc2)c2ccccc2)n1,1.12
6,CN(CCc1ccccc1)c1nc(C(=O)NCC2CC2)cc(N2CCS(=O)(=O)CC2)n1,> 50.1
7,CN(CCc1ccccc1)c1nc(C(=O)NCc2ccccc2)cc(N2CCOCC2)n1,23.4
8,CN(CCc1ccccc1)c1nc(-c2ncc(C3CC3)[nH]2)cc(N2CCOCC2)n1,40.7
9,CN(CCc1ccccc1)c1nc(NC(=O)CC2CC2)cc(N2CCOCC2)n1,7.59
10,CN(CCc1ccccc1)c1nc(C(=O)NCC2CC2)nc(N2CCOCC2)n1,> 50.1
11,O=C(NCC1CC1)c1cc(N2CCOCC2)nc(N(CCc2ccccc2)Cc2ccccc2)n1,0.741
12,CN(CCc1ccccc1)c1nc(C(=O)NCC2CC2)cc(N2CCN(C(=O)OCc3ccccc3)CC2)n1,12.9
13,O=C(NCC1CC1)c1cc(N2CCS(=O)(=O)CC2)nc(N2CCC[C@@H](c3ccccc3)C2)n1,17.4
14,CN(CCc1ccccc1)c1nc(C(=O)NCc2ccc(-c3ccccc3)cc2)cc(N2CCOCC2)n1,> 50.1
15,O=C(NCC1CC1)c1cc(N2CCOCC2)nc(N2CCCCC2CC2CCCCC2)n1 (racemic),25.1

# Continued, values first:
row,IC50 [µM],SMILES
1,13.5,CNC(=O)c1cc(N2CCOCC2)nc(N(C)CCc2ccccc2)n1
2,17.8,CN(CCc1ccccc1)c1nc(C(N)=O)cc(N2CCOCC2)n1
3,17,CNC(=O)CNC(=O)c1cc(N2CCOCC2)nc(N(C)CCc2ccccc2)n1
4,33.1,CN(CCc1ccccc1)c1nc(C(=O)NCC(F)(F)F)cc(N2CCOCC2)n1
5,> 50.1,CN(CC1CC1)C(=O)c1cc(N2CCOCC2)nc(N(C)CCc2ccccc2)n1
6,21.4,CN(CCc1ccccc1)c1nc(C(=O)NCC(C)(C)C)cc(N2CCOCC2)n1
7,34.7,CCCCCCNC(=O)c1cc(N2CCOCC2)nc(N(C)CCc2ccccc2)n1
8,> 50.1,CN(CCc1ccccc1)c1nc(C(=O)O)cc(N2CCOCC2)n1
9,0.813,CN(CCc1ccccc1)c1nc(C(=O)NCC2CC2)cc(N2CCOCC2)n1
10,11,COCCNC(=O)c1cc(N2CCOCC2)nc(N(C)CCc2ccccc2)n1
11,30.9,CN(CCc1ccccc1)c1nc(C(=O)NCC#N)cc(N2CCOCC2)n1
12,> 50.1,CN(CCc1ccccc1)c1nc(C(=O)NCC(=O)O)cc(N2CCOCC2)n1

# Target: T1, N-acyl-phosphatidylethanolamine-hydrolyzing phospholipase D
# Assay: Inhibition of full length human NAPE-PLD expressed in HEK293 cells using radiolabelled diether-NAPE as substrate incubated for 20 mins by liquid scintillation counter analysis
row,SMILES,IC50 [µM]
1,CCCCCCCCCCCCCC(=O)NCCNP(=O)(O)OCC(COC(=O)CCCCC)OC(=O)CCCCC (stereo unspecified),10

# Target: T2, N-acyl-phosphatidylethanolamine-hydrolyzing phospholipase D (Mus musculus, UniProt Q8BH82)
# T2 sequence (Q8BH82 whole entry): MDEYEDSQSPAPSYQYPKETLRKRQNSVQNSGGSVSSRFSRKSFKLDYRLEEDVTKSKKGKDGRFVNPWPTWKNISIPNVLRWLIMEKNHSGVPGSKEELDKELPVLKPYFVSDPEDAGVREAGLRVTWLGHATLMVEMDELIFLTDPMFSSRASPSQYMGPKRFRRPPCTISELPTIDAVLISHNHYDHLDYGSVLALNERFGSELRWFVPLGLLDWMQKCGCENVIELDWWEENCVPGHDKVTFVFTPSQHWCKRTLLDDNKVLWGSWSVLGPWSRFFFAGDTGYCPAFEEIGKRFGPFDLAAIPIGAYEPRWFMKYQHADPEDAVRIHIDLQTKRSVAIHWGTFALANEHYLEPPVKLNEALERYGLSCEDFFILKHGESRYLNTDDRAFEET
# Assay: Inhibition of full length mouse NAPE-PLD expressed in HEK293T cell lysate using PED6 as substrate preincubated for 30 mins followed by substrate addition and measured at 2 mins interval for 1 hr by tecan-plate reader analysis
# Assay type: subcellular
row,SMILES,IC50 [µM]
1,O=C(NCC1CC1)c1cc(N2CC[C@@H](O)C2)nc(N2CCC[C@H](c3ccccc3)C2)n1,1.26
2,O=C(NCC1CC1)c1cc(N2CCOCC2)nc(N2CCC[C@@H](c3ccccc3)C2)n1,0.575
3,O=C(NCC1CC1)c1cc(N2CC[C@H](O)C2)nc(N2CCC[C@H](c3ccccc3)C2)n1,1.82
4,O=C(NCC1CC1)c1cc(N2CC[C@@H](O)C2)nc(N2CCC[C@@H](c3ccccc3)C2)n1,0.38
5,O=C(NCC1CC1)c1cc(N2CCS(=O)(=O)CC2)nc(N2CCC[C@@H](c3ccccc3)C2)n1,9.55
6,CN(C)c1cc(C(=O)NCC2CC2)nc(N2CCC[C@@H](c3ccccc3)C2)n1,0.389
7,CN(CCc1ccccc1)c1nc(C(=O)NCC2CC2)cc(N2CCOCC2)n1,3.31
8,O=C(NCC1CC1)c1cc(N2CC[C@H](O)C2)nc(N2CCC[C@@H](c3ccccc3)C2)n1,0.447
